{
  "source": "patent US20170334919A1",
  "about": "“2-((4-AMINO-3-(3-FLUORO-5-HYDROXYPHENYL)-1H-PYRAZOLO[3,4-D]PYRIMIDIN-1 -YL)METHYL)-3-(2-(TRIFLUORO-MET HYL)BENZYL)QUINAZOLIN-4(3H)-ONE DERIVATIVES AND THEIR USE AS PHOSPHOINOSITIDE 3-KINASE INHIBITORS” (RESPIVERT LTD., priority 2013, published 2017)",
  "key": {"[1]": {"test_system": "PI3K γ (Akt phosphorylation in d-U937 cells)", "assay": "PI3K γ cell based assay: MCP-1-induced Akt phosphorylation in d-U937 cells", "conditions": "Homo sapiens, dU937; inhibition of induced Akt phosphorylation; read-out: Cellular Activity REC50 values in d-U937 cells, MCP-1 stimulus", "method": "As a means of assessing the activation of PI3K γ in response to stimuli, the phosphorylation status of the protein, Akt, a downstream product of PI3K γ signalling, was determined following stimulation with MCP-1.\n(§1) U937 cells were differentiated to macrophage-type cells by incubation with PMA (100 ng/mL) for 48 to 72 hr. Cells were then pre-incubated with either the test compound or vehicle for 2 hr and were then stimulated briefly with MCP-1 (10 nM, 1 min) and the reaction stopped by replacing the media with 4% formaldehyde solution. […] After washing with buffer (PBS containing 0.1% Triton X-100), cells were incubated with an HRP-conjugated secondary antibody (Dako) and the resultant signal was determined colorimetrically (OD: 450 nm with a reference wavelength of 655 nm) using TMB substrate (substrate reagent pack supplied by R&D Systems, Inc.).\nThis reaction was stopped by addition of 1N H2SO4 solution (100 μL). […] After washing with buffer (PBS containing 0.1% Triton X-100) 1% SDS (100 μL) was added to each well and the plates were shaken lightly for 1 hr prior to measuring the absorbance at 595 nm (Varioskan® Flash, Thermo-Fisher Scientific). The measured OD450-655 readings were corrected for cell number by dividing the OD450-655 by the OD595 readings. The ratio of pAkt signal to total Akt signal was used to quantitate the extent of PI3K γ activation. […]"}, "[2]": {"test_system": "PI3K δ (Akt phosphorylation in d-U937 cells)", "assay": "PI3K δ cell based assay: H2O2-induced Akt phosphorylation in d-U937 cells", "conditions": "Homo sapiens, dU937; inhibition of induced Akt phosphorylation; read-out: Cellular Activity REC50 values in d-U937 cells, H2O2 stimulus", "method": "As a means of assessing PI3K δ activation in response to stimuli, the phosphorylation status of the protein, Akt, a downstream product of PI3Kδ, signaling was determined.\nas §1, with “U937 cells, obtained from a human, leukemic, monocyte lymphoma cell line,” for “U937 cells”, “briefly by exposure to H2O2” for “briefly with MCP-1”, “(10 mM, 5-7” for “(10 nM, 1”\nThis reaction was stopped by the addition of H2SO4 solution (100 μL). […] After washing with buffer (PBS containing 0.1% Triton X-100) 1% SDS (100 μL) was added to each well and the plates were shaken lightly for 1 hr prior to measuring the absorbance at 595 nm (Varioskan® Flash, Thermo-Fisher Scientific). The measured OD450-655 readings were corrected for cell number by dividing the OD450-655 by the D595 readings. The ratio of pAkt signal to total Akt signal was used to quantitate the extent of PI3K δ activation. […]"}, "[3]": {"test_system": "neutrophils from COPD patients", "assay": "CXCL8 release from neutrophils obtained from COPD patients", "assay_type": "cell-based", "conditions": "Homo sapiens, Neutrophil; read-out: REC50, TNFα-induced CXCL8 in neutrophils from COPD patients", "method": "The effects of treatment on CXCL8 release from neutrophils obtained from COPD patients were evaluated by an ELISA assay. All patients were recruited by Quintiles Limited (London, UK), and blood samples were delivered to Respivert Ltd. This study was approved by the local Ethics Committee, and all subjects gave written informed consent. Whole blood (30 mL) was mixed gently with ACD (5 mL; comprising: 7.36 g citric acid, 14.71 g sodium citrate, 9.91 g dextrose in 250 ml sterile, double distilled water) and 6% dextran (15 mL; diluted in 0.9% NaCl) to remove the red blood cells. The tubes were incubated at RT for 45 min, and the supernatant (white cell rich fraction) was then collected, leaving the red blood cells.\nThis fraction was centrifuged (10 min at 1200 rpm, 4° C.) with low braking. The supernatant was aspirated and the pellet was re-suspended in ice-cold, sterile double distilled H2O (10 mL), and 0.6 M KCl (4 mL) was added 30 seconds later. […]\nNeutrophils were pre-incubated with test compounds or with DMSO vehicle for 1 hr and then stimulated with TNFα (10 ng/mL). Cell free supernatant was collected at 3 hr after TNFα stimulation, and CXCL8 was measured by ELISA using DuoSet ELISA development kit (R&D systems, Abingdon, UK). The IC50 values reported were determined from concentration-inhibition curves using XL-Fit (IDBS, Guildford, UK)."}},
  "data": [
    {"compound": "COCCOCCOCC#Cc1cccc2nc(Cn3nc(-c4cc(O)cc(F)c4)c4c(N)ncnc43)n(Cc3ccccc3C(F)(F)F)c(=O)c12", "note": "[Compound (I), 2-((4-Amino-3-(3-fluoro-5-hydroxyphenyl)-1H-pyrazolo[3,4-d]pyrimidin-1-yl)methyl)-5-(3-(2-(2-methoxyethoxy)ethoxy)prop-1-yn-1-yl)-3-(2-(trifluoromethyl)benzyl)quinazolin-4(3H)-one]", "values": [
      {"measurement": "EC50", "setting": "[1]", "value": 16.5, "unit": "nM"},
      {"measurement": "EC50", "setting": "[2]", "value": 7.4, "unit": "nM"},
      {"measurement": "EC50", "setting": "[3]", "value": 2.2, "unit": "nM"}
    ]}
  ]
}
